Experimental data from US20060247303A1, “7H-dibenzo[b,g][1,5]dioxocin-5-one derivatives and use thereof” (BAYER HEALTHCARE AG, priority 2002, published 2006).
Where two headings read alike, the source gives them in different places.

Legend:
[1] = biological target: T1, CETP activity in the serum (Homo sapiens, UniProt P11597); experiment: Measurement of the ex vivo activities on transgenic hCETP mice; assay type: in vivo; settings: mouse, serum cholesteryl ester transport; for inhibition at 30 mg/kg: 30 mg/kg oral; for inhibition at 100 mg/kg: 100 mg/kg oral
T1 construct: from tissue; host or cells: serum of transgenic hCETP mice
T1 sequence (P11597 18-493): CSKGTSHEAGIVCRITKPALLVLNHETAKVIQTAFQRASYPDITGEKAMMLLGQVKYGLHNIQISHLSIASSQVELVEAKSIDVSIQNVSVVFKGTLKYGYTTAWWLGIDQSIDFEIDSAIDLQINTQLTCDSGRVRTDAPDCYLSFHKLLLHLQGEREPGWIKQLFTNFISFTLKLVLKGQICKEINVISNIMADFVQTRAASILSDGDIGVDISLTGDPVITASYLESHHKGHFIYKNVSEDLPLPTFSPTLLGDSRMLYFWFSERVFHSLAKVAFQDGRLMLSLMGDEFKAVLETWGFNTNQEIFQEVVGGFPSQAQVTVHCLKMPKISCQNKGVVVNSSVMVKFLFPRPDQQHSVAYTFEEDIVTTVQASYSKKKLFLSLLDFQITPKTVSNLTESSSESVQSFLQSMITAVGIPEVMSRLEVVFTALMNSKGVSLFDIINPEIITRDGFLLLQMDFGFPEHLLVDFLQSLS
Experimental: To test for CETP-inhibitory activity, the substances are administered orally using a stomach tube to transgenic hCETP mice bred in-house (Dinchuk et al. BBA (1995) 1295-301). To this end, male animals are randomly assigned to groups having an equal number of animals, as a rule n=3, one day before the start of the experiment. Before administration of the substance, blood is taken from each mouse by puncture of the retro-orbital venous plexus for the determination of its basal CETP activity in the serum (T1). The test substance is then administered to the animals using the stomach tube. At specific times after administration of the test substance, blood is taken from the animals by puncture a second time (T2), as a rule 0.5, or 1 and 2 h after substance administration, but if appropriate this can also be carried out at another time.
In order to be able to assess the inhibitory activity of a substance, for each time, i.e. 0.5 or 1 or 2 h, a corresponding control group is employed whose animals only receive the formulating agent without substance. In the control animals, the second blood sampling per animal is carried out as in the substance-treated animals in order to be able to determine the change in the CETP activity without inhibitor over the corresponding experimental time interval (0.5, 1 or 2 h).
After termination of the clotting, the blood samples are centrifuged and the serum is removed by pipette.
For the determination of the CETP activity, the cholesteryl ester transport over 4 h is determined. To this end, as a rule 2 μl of serum are employed in the test batch and the test is carried out as described under “CETP fluorescence test”.
The differences in the cholesteryl ester transport [pM CE*/h (T2)−pM CE*/h (T1)] are calculated for each animal and averaged in the groups. A substance which at one of the times reduces the cholesteryl ester transport by >30% is regarded as active.

CETP = biological target: T2, CETP (Homo sapiens, UniProt P11597); experiment: CETP fluorescence test; assay type: biochemical; settings: CETP from human plasma, transfer of fluorescent cholesterol ester between liposomes, 37° C., 4 hours; read-out: IC50 [nM] Fluor. test
T2 construct: enriched CETP fraction, obtained from human plasma by means of hydrophobic chromatography; from tissue; host or cells: human plasma
T2 sequence (P11597 18-493): T1 sequence (P11597 18-493)
Experimental: CETP is obtained in partially purified form from human plasma by differential centrifugation and column chromatography and used for the test. To this end, human plasma is adjusted to a density of 1.21 g per ml using NaBr and centrifuged at 4° C. at 50 000 rpm for 18 h. The bottom fraction (d>1.21 g/ml) is applied to a Sephadex® Phenyl-Sepharose 4B (Pharmacia) column, washed with 0.15 M NaCl/0.001 M tris HCl pH 7.4 and then eluted with distilled water. The CETP-active fractions are pooled, dialysed against 50 mM sodium acetate pH 4.5 and applied to a CM-Sepharose® column (Pharmacia). The mixture is then eluted using a linear gradient (0-1 M NaCl). The pooled CETP fractions are dialysed against 10 mM Tris HCl pH 7.4 and then further purified by chromatography on a Mono Q® column (Pharmacia).
Measurement of the CETP-catalysed transfer of a fluorescent cholesterol ester between liposomes—modified according to the procedure of Bisgaier et al., J. Lipid Res. 34, 1625 (1993):
For the production of the donor liposomes, 1 mg of cholesteryl 4,4-difluoro-5,7-dimethyl-4-bora-3a,4a-diaza-s-indacene-3-dodecanoate (cholesteryl BODIPY® FL C12, Molecular Probes) is dissolved in 600 μl of dioxane with 5.35 mg of triolein and 6.67 mg of phosphatidylcholine with gentle warming in an ultrasonic bath and this solution is added very slowly with ultrasonication to 63 ml of 50 mM tris/HCl, 150 mM NaCl, 2 mM EDTA buffer pH 7.3 at RT.
The suspension is then ultrasonicated under an N2 atmosphere for 30 minutes in the Braukson ultrasonic bath at about 50 watts, the temperature being kept at about 20° C.
The acceptor liposomes are obtained analogously from 86 mg of cholesteryl oleate, 20 mg of triolein and 100 mg of phosphatidylcholine dissolved in 1.2 ml of dioxane and 114 ml of above buffer by ultrasonication at 50 watts (20° C.) for 30 minutes.
For testing, a test mix consisting of 1 part of above buffer, 1 part of donor liposomes and 2 parts of acceptor liposomes is used.
80 μl of test mix are treated with 1-3 μg of enriched CETP fraction, obtained from human plasma by means of hydrophobic chromatography, and 2 μl of the substance to be investigated in DMSO and incubated at 37° C. for 4 hours.
The change in the fluorescence at 485/535 nm is a measure of the CE transfer; the inhibition of the transfer in comparison to the control batch without substance is determined.

HDL = experiment: Measurement of the in vivo activity in transgenic hCETP mice; settings: stomach tube
Experimental: In experiments for the determination of the oral action on lipoproteins and triglycerides, test substance is administered to transgenic mice [Dinchuck et al., BBA, 1295-301 (1995)] using a stomach tube. Before the start of the experiment, blood is taken from the mice retro-orbitally in order to determine cholesterol and triglycerides in the serum. The serum is obtained as described above for hamsters by incubation at 4° C. overnight and subsequent centrifugation at 6000×g. […] The change in the parameters measured are expressed as the percentage change compared with the starting value.

HDL cholesterol = experiment: Measurement of the in vivo activity in Syrian golden hamsters; settings: peroral
Experimental: In experiments for the determination of the oral action on lipoproteins and triglycerides, test substance dissolved in DMSO and 0.5% suspended in Tylose are administered perorally by means of a stomach tube to Syrian golden hamsters bred in-house. For the determination of the CETP activity, before the start of the experiment blood is taken by retro-orbital puncture (about 250 μl). The test substances are then administered perorally by means of a stomach tube. The control animals receive identical volumes of solvent without test substance. […]
Clotting is terminated by incubation of 4° C. overnight, then centrifugation is carried out for 10 minutes at 6000×g. The content of cholesterol and triglycerides in the serum thus obtained is determined with the aid of modified commercially obtainable enzymatic tests (Ecolin 25 Cholesterol, 1.14830.0001 Merck Diagnostica; Ecoline 25 Triglycerides, 1.14856.0001 Merck Diagnostica). […]
10 μl of serum dilution are treated with 200 μl of Ecoline 25 reagent in 96-hole plates and incubated for 10 minutes at room temperature. The optical density is then determined at a wavelength of 490 nm using an automatic plate reader. The triglyceride or cholesterol concentration contained in the samples is determined with the aid of a standard curve measured in parallel. […]

[2] = 0.5 h after administration, read-out: % inhibition at 30 mg/kg 0.5 h
[3] = 1 h after administration, read-out: % inhibition at 30 mg/kg 1 h
[4] = 2 h after administration, read-out: % inhibition at 30 mg/kg 2 h
[5] = 0.5 h after administration, read-out: % inhibition at 100 mg/kg 0.5 h
[6] = 1 h after administration, read-out: % inhibition at 100 mg/kg 1 h
[7] = 2 h after administration, read-out: % inhibition at 100 mg/kg 2 h
[8] = 3 h after administration, read-out: % inhibition at 30 mg/kg 3 h
[9] = 6 h after administration, read-out: % inhibition at 30 mg/kg 6 h

SMILES | inhibition at 30 mg/kg [1, 2] [%] | inhibition at 30 mg/kg [1, 3] [%] | inhibition at 30 mg/kg [1, 4] [%] | IC50 (CETP) [nM] | inhibition at 30 mg/kg [1, 8] [%] | inhibition at 30 mg/kg [1, 9] [%] | inhibition at 100 mg/kg [1, 5] [%] | inhibition at 100 mg/kg [1, 6] [%] | inhibition at 100 mg/kg [1, 7] [%] | % increase of HDL after 4 d (dose: 4 × 30 mg/kg) (HDL) [%] | % increase of HDL after 24 h (dose: 2 × 30 mg/kg) (HDL cholesterol) [%]
COc1c([C@@H](O)CC(C)C)ccc2c1C(=O)OCc1c(Cl)c(C)c(Cl)c(OC(=O)C3(C)CCCCC3)c1O2 [Example B-84] | 31 | 28 | 35 | 100 |  |  |  |  |  |  | 
COc1c([C@@H](O)CC(C)C)ccc2c1C(=O)OCc1cc(C)cc(OC(=O)N3C4CCC3CC4)c1O2 [Example B-147] |  |  |  | 200 |  |  | 76 | 54 | 33 |  | 
COc1c([C@@H](O)CC(C)C)ccc2c1C(=O)OCc1c(C)c(C)c(C)c(OC(=O)C3(C)CC4CCC3C4)c1O2 (stereo partly shown) [Example B-70] | 48 | 30 | 44 | 150 |  |  |  |  |  |  | 
COc1c([C@@H](O)CC(C)C)ccc2c1C(=O)OCc1c(Cl)c(C)c(Br)c(OC(=O)C3(C)CC4CCC3C4)c1O2 (stereo partly shown) [Example B-45] | 70 | 71 | 63 | 70 |  |  |  |  |  |  | 
COc1c([C@@H](O)CC(C)C)ccc2c1C(=O)OCc1c(Cl)c(C)c(Cl)c(OC(=O)C3(C)CC4CCC3C4)c1O2 (stereo partly shown) [Example B-81] | 54 | 59 | 55 | 60 |  |  |  |  |  |  | 
COc1c([C@@H](O)CC(C)C)ccc2c1C(=O)OCc1cc(C)cc(OC(=O)CC(C)(C)C)c1O2 [Example A-23] |  |  |  | 250 |  |  | 59 | 52 | 31 |  | 
COc1c([C@@H](O)CC(C)C)ccc2c1C(=O)OCc1c(Br)c(C)c(Br)c(OC(=O)C3(C)CC4CCC3C4)c1O2 (stereo partly shown) [Example B-69] | 52 | 55 | 27 | 100 |  |  |  |  |  |  | 

Further lines, with some results ahead:

inhibition at 30 mg/kg [1, 2] [%] | inhibition at 30 mg/kg [1, 3] [%] | inhibition at 30 mg/kg [1, 4] [%] | IC50 (CETP) [nM] | inhibition at 30 mg/kg [1, 8] [%] | inhibition at 30 mg/kg [1, 9] [%] | SMILES | inhibition at 100 mg/kg [1, 5] [%] | inhibition at 100 mg/kg [1, 6] [%] | inhibition at 100 mg/kg [1, 7] [%] | % increase of HDL after 4 d (dose: 4 × 30 mg/kg) (HDL) [%] | % increase of HDL after 24 h (dose: 2 × 30 mg/kg) (HDL cholesterol) [%]
83 | 76 | 64 |  |  |  | COc1c([C@@H](O)CC(C)C)ccc2c1C(=O)OCc1c(Cl)c(C)c(Br)c(OC(=O)[C@]3(C)CC4C=CC3C4)c1O2 (stereo partly shown) [Example C-31] |  |  |  |  | 
 | 91 |  | 15 | 81 | 56 | CCc1c(C)c(Cl)c2c(c1OC(=O)C1(C)C3CCC1CC3)Oc1ccc([C@@H](O)CC(C)(C)C)c(OC)c1C(=O)OC2 (stereo partly shown) [Example C-73] |  |  |  | 56 | 
 | 60 |  | 40 | 29 | 7 | COCc1c(C)c(Cl)c2c(c1OC(=O)C1(C)C3CCC1CC3)Oc1ccc(C(O)CC(C)(C)C)c(OC)c1C(=O)OC2 (stereo not shown) [Example C-71] |  |  |  |  | 
 | 75 |  | 58 | 50 | 20 | CCc1c(C)c(Cl)c2c(c1OC(=O)C1(C)C3CCC1CC3)Oc1ccc([C@@H](O)CC(C)C)c(OC)c1C(=O)OC2 (stereo partly shown) [Example C-118] |  |  |  |  | 
 | 83 |  | 32 | 65 | 48 | COc1c([C@@H](O)CC(C)(C)C)ccc2c1C(=O)OCc1c(Cl)c(C)c(Br)c(OC(=O)C3(C)C4CCC3CC4)c1O2 (stereo partly shown) [Example C-63] |  |  |  |  | 17
 | 52 |  |  | 32 | 26 | COc1c([C@@H](O)CC(C)C)ccc2c1C(=O)OCc1cc(C)c(C3CC3)c(OC(=O)C3(C)C4CCC3CC4)c1O2 (stereo partly shown) [Example C-59] |  |  |  |  | 
 |  |  | 30 |  |  | COc1c([C@@H](O)CC(C)(C)C)ccc2c1C(=O)OCc1c(Cl)c(C)c(C)c(OC(=O)C3(C)C4CCC3CC4)c1O2 (stereo partly shown) [Example C-72] |  |  |  | 68 | 
 | 66 |  | 57 | 53 | 14 | COc1c([C@@H](O)CC(C)C)ccc2c1C(=O)OCc1c(Cl)c(C)c(C3CC3)c(OC(=O)C3(C)C4CCC3CC4)c1O2 (stereo partly shown) [Example C-56] |  |  |  |  | 
